According to the SangsterLogP compilation:

Assay: method code SF-GLC,AS, from DOI: 10.1021/jf60192a013, PMID: 4840568

Row | SMILES | logP
1 | CCCOP(N)(=O)SCCC (configuration not stated) | 1.23
2 | COP(N)(=O)SC (configuration not stated) | -0.66
3 | CCC(C)NP(=O)(OC)SC (configuration not stated) | 0.95
4 | CCCCNP(=O)(OC)SC (configuration not stated) | 0.94
5 | CNP(=O)(OC)SC (configuration not stated) | -0.07
6 | CCCCCCCCNP(=O)(OC)SC (configuration not stated) | 1.51
7 | COP(=O)(NC(C)(C)C)SC (configuration not stated) | 0.96
8 | CCCCCCNP(=O)(OC)SC (configuration not stated) | 1.11
9 | CCOP(N)(=O)SCC (configuration not stated) | 0.15
10 | CCCNP(=O)(OC)SC (configuration not stated) | 0.65
11 | CCNP(=O)(OC)SC (configuration not stated) | 0.07
12 | COP(=O)(NCC(C)C)SC (configuration not stated) | 0.97
